Source: US11208629B2, “Non-human primate induced pluripotent stem cell derived hepatocytes and uses thereof” (Hoffmann-La Roche Inc., priority 2016, dated 2021)
Blank lines part the entries; values can stand above or below the compound they belong to.

Tests used:
[1] = system: Cynomolgus IPSCs; test: Hepatocyte differentiation of cynomolgus IPSCs (supplement optimisation)
Protocol: To initialize differentiation, the cells are incubated in a defined medium comprising a Wnt pathway activator.
Generally, media change was performed every day until day 16 and afterwards every second day. Basic medium for differentiation was MT basic medium (DMEM/F12+Glutamax with insulin 7 μg/ml, monothioglycerole 450 μM, 1× Lipid concentrate, BSA 5 mg/ml, sodium selenite 14 ng/ml, 1× non-essential amino acids, heparin 2 mg/ml, transferrin 15 μg/ml, 220 μM ascorbic acid-2-phosphate) or changing to RPMI1640 medium+B27 1:50+non-essential amino acids 1:100 from day 3 of differentiation onwards. On day 1 of differentiation, medium was changed to MT basic medium with 100 ng/ml ActivinA, 10 μM Ly294002 and 1 μM CP21 (Roche GSK3β inhibitor). Then, cells were treated for two days with 100 ng/ml ActivinA, 0.25 μM LDN193189 and 1 μM CP21. At day 4, the medium was changed for three days to the supplements 50 ng/ml ActivinA, 2% knock-out serum replacement (KSR) and 0.5% DMSO. The protocol was modified to a prolonged step of high ActivinA which consisted of 100 ng/ml ActivinA at day 4 of differentiation. To induce hepatic specification, cells were maintained for four days in medium supplemented with 2% KSR, 10 ng/ml BMP4, 10 ng/ml FGF2 or FGF10 and 0.5% DMSO. […] Modification included the addition of 1 μM DAPT between day 11 and day 20. Further modifications included the change of the basis medium for maturation at day 11 to HBM medium+SingleQuots™ (Lonza).
At day 21 of differentiation, efficiency of differentiation was analyzed using two different quantification methods. First, the area covered by ALB positive cells was determined and second the area of cells with typical hepatocyte morphology was evaluated (FIG. 6A and FIG. 6B).

[2] = system: NHP-IPSC-derived hepatocytes; test: Hepatotoxicity assay (WST-1 cell viability); type: cell-based, Cynomolgus monkey; details: 100 μM, 24 hours, WST-1, MACS-enriched cells in matrigel sandwich
Protocol: NHP-IPSC-derived hepatocytes were enriched using MACS and replated in matrigel sandwich condition as described above. To assess cell response to hepatotoxic compounds cells were treated with 100 μM troglitazone (Sigma) for 24 hours. Cell viability was measured using the WST-1 reagent (Sigma). 10 μl WST-1 reagent were added directly to the medium (1:10 dilution) and cells were incubated for 4 hours at 37° C., 5% CO2. Plates were stirred for 15 seconds and absorbance at 405 nm was measured.
To assess the feasibility of NHP IPSC-derived hepatocytes as model system for drug-induced liver injury, we treated the hepatocytes with Troglitazone, a small molecule with known hepatotoxic effects.

efficiency of differentiation of pluripotent stem cells into hepatocytes ([1]; CP21 1 μM, cell density 45000/cm^2, tested 0 to 2 μM, 30000 to 75000/cm^2): most efficient differentiation
Compound: Cn1cc(C2=C(c3cccc(N)c3)C(=O)NC2=O)c2ccccc21 [CP21, 3-(3-Amino-phenyl)-4-(1-methyl-1H-indol-3-yl)-pyrrole-2,5-dione]
cell viability during differentiation ([1]; CP21 concentrations above 2 μM): decreased cell viability

Compound: Cc1c(C)c2c(c(C)c1O)CCC(C)(COc1ccc(CC3SC(=O)NC3=O)cc1)O2 (stereo not shown) [Troglitazone]
cell viability compared to control cells [2]: decrease in cell viability

Compound: FGF2: fibroblast growth factor used for hepatic specification
ALB positive cells at day 21 ([1]; 10 ng/ml FGF2 versus FGF10, hepatic specification step): more ALB positive cells than FGF10 treatment
